Source: ChEMBL document CHEMBL5346881 (Eur J Med Chem, 2023)

What was measured:
SK-OV-3 [1] = test: Antiproliferative activity against human SK-OV-3 cells assessed inhibition of cell growth incubated for 48 hrs by MTT assay; format: functional, cell-based; conditions: SK-OV-3, 48 h
[2] = Antiproliferative activity against human UWB1289 cells harboring BRCA1 assessed inhibition of cell growth incubated for 48 hrs by MTT assay; format: functional, cell-based; conditions: UWB1289, 48 h
PC-3 [3] = test: Antiproliferative activity against human PC-3 cells assessed inhibition of cell growth incubated for 48 hrs by MTT assay; format: functional, cell-based; conditions: PC-3, 48 h
MCF7 [4] = test: Antiproliferative activity against human MCF7 cells assessed inhibition of cell growth incubated for 48 hrs by MTT assay; format: functional, cell-based; conditions: MCF7, 48 h
MRC5 [5] = test: Antiproliferative activity against human MRC5 cells assessed inhibition of cell growth incubated for 48 hrs by MTT assay; format: functional, cell-based; conditions: MRC5, 48 h
SK-OV-3 [6] = test: Growth inhibition of human SK-OV-3 cells incubated for 48 hrs by MTT assay; format: functional
[7] = Growth inhibition of human UWB1289 cells harboring BRCA1 incubated for 48 hrs by MTT assay; format: functional
PC-3 [8] = test: Growth inhibition of human PC-3 cells incubated for 48 hrs by MTT assay; format: functional
MCF7 [9] = test: Growth inhibition of human MCF7 cells incubated for 48 hrs by MTT assay; format: functional
MRC5 [10] = test: Growth inhibition of human MRC5 cells incubated for 48 hrs by MTT assay; format: functional
[11] = Acute toxicity in ip dosed CB17 SCID mouse assessed as lethal dose; format: organism-based; design: LD20: unit not given here; conditions: in vivo
P388 = test: Antitumor activity against mouse P388 cells xenografted in CB17 SCID mouse assessed as T/C ratio at 140 uM, ip administered as single dose measured after 17 days; format: functional; conditions: time 17 day
HT-29 = test: Antiproliferative activity against human HT-29 cells assessed inhibition of cell growth incubated for 48 hrs by MTT assay; format: functional, cell-based; conditions: HT-29, 48 h
LS174T = test: Antiproliferative activity against human LS174T cells assessed inhibition of cell growth incubated for 48 hrs by MTT assay; format: functional, cell-based
LoVo = test: Antiproliferative activity against human LoVo cells assessed inhibition of cell growth incubated for 48 hrs by MTT assay; format: functional, cell-based
MDA-MB-453 = test: Antiproliferative activity against human MDA-MB-453 cells assessed inhibition of cell growth incubated for 48 hrs by MTT assay; format: functional, cell-based; conditions: MDA-MB-453, 48 h
MDA-MB-231 = test: Antiproliferative activity against human MDA-MB-231 cells assessed inhibition of cell growth incubated for 48 hrs by MTT assay; format: functional, cell-based; conditions: MDA-MB-231, 48 h
HeLa = test: Antiproliferative activity against human HeLa cells assessed inhibition of cell growth incubated for 48 hrs by MTT assay; format: functional, cell-based
HuP-T3 = test: Antiproliferative activity against human HuP-T3 cells assessed inhibition of cell growth incubated for 48 hrs by MTT assay; format: functional, cell-based; conditions: HuP-T3, 48 h
SK-OV-3 [12] = test: Antitumor activity against human SK-OV-3 cells xenografted in CB17 SCID mouse assessed as reduction in tumor volume at 36 mg/kg, ip administered as single dose measured after 11 days (reference value: 790 +/- 65.6 mm3); format: functional; conditions: time 11 day
SK-OV-3 [13] = test: Antitumor activity against human SK-OV-3 cells xenografted in CB17 SCID mouse assessed as tumor inhibition at 36 mg/kg, ip administered as single dose measured after 11 days; format: functional; conditions: SK-OV-3, 264 h, time 11 day, read-out: TGI
PC-3 [14] = test: Antitumor activity against human PC-3 cells xenografted in CB17 SCID mouse assessed as reduction in tumor volume at 36 mg/kg, ip administered as single dose measured after 21 days (reference value: 683 +/- 47.3 mm3); format: functional; conditions: time 21 day
PC-3 [15] = test: Antitumor activity against human PC-3 cells xenografted in CB17 SCID mouse assessed as tumor inhibition at 36 mg/kg, ip administered as single dose measured after 21 days; format: functional; conditions: PC-3, 504 h, time 21 day, read-out: TGI
SK-OV-3 [16] = test: Antitumor activity against human SK-OV-3 cells xenografted in CB17 SCID mouse assessed as tumor inhibition at 140 uM, ip administered as single dose measured after 17 days; format: functional; conditions: SK-OV-3, 408 h, time 17 day, read-out: TGI

CC(=O)O[C@@H](COc1ccc(N(CCCl)CCCl)cc1)C(=O)O
IC50 (SK-OV-3 [1]): > 100 µM | IC50 [2]: > 100 µM | IC50 (PC-3 [3]): > 100 µM | IC50 (MCF7 [4]): > 100 µM | IC50 (MRC5 [5]): > 100 µM | GI50 (SK-OV-3 [6]): > 100 µM | TGI (SK-OV-3 [6]): > 100 µM | GI50 [7]: > 100 µM | TGI [7]: > 100 µM | GI50 (PC-3 [8]): > 100 µM | TGI (PC-3 [8]): > 100 µM | GI50 (MCF7 [9]): 80 µM | TGI (MCF7 [9]): > 100 µM | GI50 (MRC5 [10]): 50 µM | TGI (MRC5 [10]): > 100 µM

C[C@]12CC[C@H]3[C@@H](CCC4=CC(=O)NCC[C@@]43C)[C@@H]1CC[C@@H]2OC(=O)[C@@H](N)COc1ccc(N(CCCl)CCCl)cc1
IC50 (SK-OV-3 [1]): 1 µM | IC50 [2]: 1 µM | LD20 ([11]; ip): 12.5 | LD50 ([11]; ip): 21 | T/C (P388): 410.3 | IC50 (HT-29): 1 µM | IC50 (LS174T): 1 µM | IC50 (LoVo): 1 µM | IC50 (MDA-MB-453): 1 µM | IC50 (MDA-MB-231): 1 µM | IC50 (HeLa): 1 µM | IC50 (HuP-T3): 1 µM

C[C@]12CC[C@H]3[C@@H](CCC4=CC(=O)NCC[C@@]43C)[C@@H]1CC[C@@H]2OC(=O)[C@@H](O)COc1ccc(N(CCCl)CCCl)cc1
IC50 (SK-OV-3 [1]): 9 µM | IC50 [2]: 51 µM | IC50 (PC-3 [3]): 11 µM | IC50 (MCF7 [4]): 8 µM | IC50 (MRC5 [5]): 22.5 µM | GI50 (SK-OV-3 [6]): 1 µM | TGI (SK-OV-3 [6]): 3.5 µM | GI50 [7]: 1.2 µM | TGI [7]: 4 µM | GI50 (PC-3 [8]): 2 µM | TGI (PC-3 [8]): 4 µM | GI50 (MCF7 [9]): 1.5 µM | TGI (MCF7 [9]): 3.8 µM | GI50 (MRC5 [10]): 3 µM | TGI (MRC5 [10]): 10 µM | LD50 ([11]; CB17 SCID, read-out: LD50): 28 mg/kg | LD10 ([11]; ip): 36 mg/kg | Activity (SK-OV-3 [12]): 192 mm3 | inhibition in vivo at 36 mg/kg (SK-OV-3 [13]): 95% | Activity (PC-3 [14]): 181 mm3 | inhibition in vivo at 36 mg/kg (PC-3 [15]): 85.2%

CC(=O)O[C@@H](COc1ccc(N(CCCl)CCCl)cc1)C(=O)Oc1ccc2c(c1)CC[C@@H]1[C@@H]2CC[C@]2(C)NC(=O)CC[C@@H]12
IC50 (SK-OV-3 [1]): 22 µM | IC50 [2]: 11.9 µM | IC50 (PC-3 [3]): 15 µM | IC50 (MCF7 [4]): 10 µM | IC50 (MRC5 [5]): 19 µM | GI50 (SK-OV-3 [6]): 4 µM | TGI (SK-OV-3 [6]): 9 µM | GI50 [7]: 3 µM | TGI [7]: 8.8 µM | GI50 (PC-3 [8]): 4.5 µM | TGI (PC-3 [8]): 8.9 µM | GI50 (MCF7 [9]): 2 µM | TGI (MCF7 [9]): 5.5 µM | GI50 (MRC5 [10]): 6.5 µM | TGI (MRC5 [10]): 10 µM

CC(=O)O[C@@H](COc1ccc(N(CCCl)CCCl)cc1)C(=O)O[C@H]1CC[C@H]2[C@@H]3CCC4=CC(=O)NCC[C@]4(C)[C@H]3C(=O)C[C@]12C
IC50 (SK-OV-3 [1]): 33 µM | IC50 [2]: 12 µM | IC50 (PC-3 [3]): 16 µM | IC50 (MCF7 [4]): 12 µM | IC50 (MRC5 [5]): 52 µM | GI50 (SK-OV-3 [6]): 3.8 µM | TGI (SK-OV-3 [6]): 9 µM | GI50 [7]: 3 µM | TGI [7]: 7 µM | GI50 (PC-3 [8]): 8.2 µM | TGI (PC-3 [8]): 9 µM | GI50 (MCF7 [9]): 2.2 µM | TGI (MCF7 [9]): 7 µM | GI50 (MRC5 [10]): 27 µM | TGI (MRC5 [10]): 38 µM

C[C@]12CC(=O)[C@H]3[C@@H](CCC4=CC(=O)NCC[C@@]43C)[C@@H]1CC[C@@H]2OC(=O)CCOc1ccc(N(CCCl)CCCl)cc1
IC50 (SK-OV-3 [1]): 65 µM | IC50 [2]: 65 µM | LD20 ([11]; ip): 140 | LD50 ([11]; ip): 110 | T/C (P388): 356 | IC50 (HT-29): 65 µM | IC50 (LS174T): 65 µM | IC50 (LoVo): 65 µM | IC50 (MDA-MB-453): 65 µM | IC50 (MDA-MB-231): 65 µM | IC50 (HeLa): 65 µM | IC50 (HuP-T3): 65 µM

CC(=O)O[C@@H](COc1ccc(N(CCCl)CCCl)cc1)C(=O)O[C@H]1CC[C@H]2[C@@H]3CCC4=CC(=O)NCC[C@]4(C)[C@H]3CC[C@]12C
IC50 (SK-OV-3 [1]): 3.9 µM | IC50 [2]: 6.3 µM | IC50 (PC-3 [3]): 9 µM | IC50 (MCF7 [4]): 4.3 µM | IC50 (MRC5 [5]): 21.5 µM | GI50 (SK-OV-3 [6]): 0.8 µM | TGI (SK-OV-3 [6]): 2.2 µM | GI50 [7]: 0.7 µM | TGI [7]: 2.2 µM | GI50 (PC-3 [8]): 1.7 µM | TGI (PC-3 [8]): 3.9 µM | GI50 (MCF7 [9]): 1.5 µM | TGI (MCF7 [9]): 3.4 µM | GI50 (MRC5 [10]): 3.9 µM | TGI (MRC5 [10]): 15.3 µM

C[C@]12CC(=O)[C@H]3[C@@H](CCC4=CC(=O)NCC[C@@]43C)[C@@H]1CC[C@@H]2OC(=O)[C@@H](N)COc1ccc(N(CCCl)CCCl)cc1
IC50 (SK-OV-3 [1]): 4 µM | IC50 [2]: 4 µM | LD20 ([11]; ip): 10 | LD50 ([11]; ip): 14 | T/C (P388): 109.9 | IC50 (HT-29): 4 µM | IC50 (LS174T): 4 µM | IC50 (LoVo): 4 µM | IC50 (MDA-MB-453): 4 µM | IC50 (MDA-MB-231): 4 µM | IC50 (HeLa): 4 µM | IC50 (HuP-T3): 4 µM | inhibition in vivo at 140 µM (SK-OV-3 [16]): 110%

C[C@]12CC(=O)[C@H]3[C@@H](CCC4=CC(=O)NCC[C@@]43C)[C@@H]1CC[C@@H]2OC(=O)[C@@H](O)COc1ccc(N(CCCl)CCCl)cc1
IC50 (SK-OV-3 [1]): 36 µM | IC50 [2]: 56 µM | IC50 (PC-3 [3]): 28 µM | IC50 (MCF7 [4]): 21 µM | IC50 (MRC5 [5]): 68 µM | GI50 (SK-OV-3 [6]): 3.4 µM | TGI (SK-OV-3 [6]): 12 µM | GI50 [7]: 5 µM | TGI [7]: 13.2 µM | GI50 (PC-3 [8]): 4 µM | TGI (PC-3 [8]): 9 µM | GI50 (MCF7 [9]): 6 µM | TGI (MCF7 [9]): 11 µM | GI50 (MRC5 [10]): 12 µM | TGI (MRC5 [10]): 44 µM
